Data from patent US6583172B1, “Anticonvulsant derivatives useful in treating chronic neurodegenerative disorders” (priority 1999, dated 2003).
Where no end group is shown, it is not given here.

Experiments:
[1] = test system: animal model of kindled epilepsy; details: cited from earlier work
[2] = test system: simple and complex partial seizures and secondarily generalized seizures; details: human epilepsy; cited from earlier work
rat facial nerve = experiment: Rat facial nerve compression model of peripheral nerve injury, restoration of whisker movement; format: in vivo
Experimental: In the study in vivo, topiramate was evaluated in a rat facial nerve compression model of peripheral nerve injury. Rats were anesthetized, their skin and muscle excised to visualize the facial nerve. The nerve was injured near the stylom by compression with forceps. The wound was sutured and the rat allowed to recover before compound administration. The rats were divided into three groups: vehicle-treated, topiramate-treated (p.o., 20 mg/kg) and α-MSH-treated (s.c., 1 mg/kg). Compounds were administered twice daily for 14 days post-surgery. Facial nerve compression causes paralysis of the whisker muscle ipsilateral to the injury site. Restoration of whisker movement (lesioned versus non-lesioned side) was monitored daily for 14 days. Spontaneous recovery of whisker movement was detected as early as 10 days post-surgery with full recovery achieved by 13 days.
FIG. 3 is a line graph illustrating the effects of topiramate and α-MSH on the restoration of facial nerve function in rats, as measured by the rate whisker movement. The total rate of whisker movement on the side that the facial nerve was not injured was assigned a value of 100. Whisker movement on the side of the injured nerve is presented as a percent ±SEM of the whisker movement on the non-injured side. The rate of whisker movement was monitored visually by a skilled observer blinded to the treatment each rat received.

[3] = test system: rat cerebral cortical cells; experiment: Neurite outgrowth in rat cerebral cortical cell cultures, MAP-2 immunofluorescence; format: cell-based; details: p<0.05
Experimental: (§1) In studies in vitro, cultures of rat hippocampal and cerebral cortical cells were established from embryonic day 18 pups. The cells were grown in culture wells (plates) for seven days in the presence of various concentrations of topiramate (0.1 nM-100 nM), or the neurotrophic factors BDNF (brain-derived neurotrophic, 10 ng) and α-MSH (alpha-melanocyte stimulating hormone, 50 nM), or vehicle (isotonic saline). Each compound was added to the culture medium in a specified set of wells at the time the cells were plated and then again four days later when the culture media was removed and replaced with fresh media. On the seventh day in culture, the cells were treated with formalin, a tissue fixative. Subsequently, the cells were treated with a fluorescein-labeled antibody specific for microtubule associated protein-2 (MAP-2), a selective marker for dendritic processes. The amount of fluorescein-labeled antibody bound to MAP-2 (FITC signal) in each well was analytically determined. This information was then used to calculate the relative degree of neurite outgrowth for the cells in each well. […] FIG. 2 is a bar graph illustrating the effects of topiramate, BDNF,α-MSH and GPI on neurite outgrowth in rat cerebral cortical cell cultures, as measured by MAP-2 immunofluorescence. […]

[4] = test system: rodent models of epilepsy; details: several rodent models of epilepsy; cited from earlier work
rat hippocampal cells = experiment: Neurite outgrowth in rat hippocampal cell cultures, MAP-2 immunofluorescence; format: cell-based; details: seven days in culture, concentrations ranging from 100 nM to 100 μM, P<0.05
Experimental: as §1, with “wells ([…]),” for “wells (plates) for seven days in the presence of various concentrations of topiramate (0.1 nM-100 nM),”, “FIG. 1” for “FIG. 2”, “rat hippocampal” for “rat cerebral cortical”

Row | Compound | block of seizures [1] | efficacy in treating seizures in clinical trials [2] | whisker movement recovery, day 11 (rat facial nerve; p.o., 20 mg/kg twice daily, day 11 post-surgery, vehicle=19%, p<0.001) [%] | whisker movement recovery, day 12 (rat facial nerve; p.o., 20 mg/kg twice daily, day 12 post-surgery, vehicle=68%, p<0.01) [%] | neurite outgrowth ([3]; 100 nM) | neurite outgrowth ([3]; 10 μM) | block of seizures [4] | increase in neurite outgrowth (FITC signal, MAP-2) versus vehicle (rat hippocampal cells) | increase in whisker movement recovery versus vehicle, days 11 and 12 (rat facial nerve; s.c., 1 mg/kg twice daily, days 11 and 12 post-surgery)
1 | CC1(C)O[C@@H]2[C@@H](CO[C@@]3(COS(N)(=O)=O)OC(C)(C)O[C@@H]23)O1 [topiramate, 2,3:4,5-bis-O-(1-methylethylidene)-β-D-fructopyranose sulfamate] | effectively block seizures | effective as adjunctive therapy or as monotherapy | 60 | 92 | 119 % of control | 119 % of control | effectively block seizures | significantly higher | 
2 | α-MSH: alpha-melanocyte stimulating hormone, neurotrophic factor used as comparator (SYSMEHFRWGKPV; ends and bridges not checked; UniProt P01189 138-150, looked up) |  |  |  |  |  |  |  |  | smaller, statistically nonsignificant increase
